≈ marks a conversion by molar mass, not a printed value.
Experiments:
Format in all cases: cell-based
Bacillus cereus IFO 3001 = test: Minimum inhibitory concentration, Bacillus cereus IFO 3001; conditions: IFO3001
Text: (§1) The compounds of formula (I) show antibacterial activity against both gram-positive and gram-negative bacteria. The following Tables illustrate minimum inhibitory concentrations (MIC's) for a representative sample of the compounds of the invention against gram-positive and gram-negative bacteria as well as bacteria resistant to antibiotics. In the Tables abbreviations with the symbol r attached designate resistant bacterial strains.

[1] = tested on: Pseudomonas aeruginosa P-3; test: Minimum inhibitory concentration, Pseudomonas aeruginosa P-3; conditions: P3
Text: as §1

[2] = tested on: Proteus vulgaris IFO 3167; test: Minimum inhibitory concentration, Proteus vulgaris IFO 3167; conditions: IFO3167
Text: as §1

[3] = tested on: Klebsiella pneumoniae ATCC 10031; test: Minimum inhibitory concentration, Klebsiella pneumoniae ATCC 10031; conditions: ATCC10031
Text: as §1

[4] = tested on: Micrococcus luteus ATCC 9341; test: Minimum inhibitory concentration, Micrococcus luteus ATCC 9341; conditions: ATCC9341
Text: as §1

[5] = tested on: Salmonella typhirium KB 20; test: Minimum inhibitory concentration, Salmonella typhirium KB 20; conditions: KB20, read-out: minimum inhibitory concentration (MIC)
Text: as §1

[6] = tested on: Klebsiella pneumoniae PCI 602; test: Minimum inhibitory concentration, Klebsiella pneumoniae PCI 602; conditions: PCI602
Text: as §1

[7] = tested on: Bacillus subtilis PCI 219; test: Minimum inhibitory concentration, Bacillus subtilis PCI 219; conditions: PCI219
Text: as §1

[8] = tested on: Staphylococcus aureus KB 199(EM^r); test: Minimum inhibitory concentration, Staphylococcus aureus KB 199(EM^r); conditions: Staphylococcus aureus KB 199, erythromycin-resistant (EM^r)
Text: as §1

[9] = tested on: Staphylococcus aureus ATCC 6538P; test: Minimum inhibitory concentration, Staphylococcus aureus ATCC 6538P; conditions: ATCC6538P
Text: as §1

Escherichia coli NIHJ = test: Minimum inhibitory concentration, Escherichia coli NIHJ
Text: as §1

[10] = tested on: Mycobacterium smegmatis ATCC 607; test: Minimum inhibitory concentration, Mycobacterium smegmatis ATCC 607; conditions: Mycolicibacterium smegmatis, ATCC607
Text: as §1

[11] = tested on: Staphylococcus aureus KB 221 (MC, TC, CP, KM^r); test: Minimum inhibitory concentration against resistant strain Staphylococcus aureus KB 221
Text: as §1

[12] = tested on: Staphylococcus aureus KB 219 (MC, TC, PC, CP^r); test: Minimum inhibitory concentration against resistant strain Staphylococcus aureus KB 219
Text: as §1

[13] = tested on: Staphylococcus aureus KB 191 (MC, TC^r); test: Minimum inhibitory concentration against resistant strain Staphylococcus aureus KB 191
Text: as §1

[14] = tested on: Staphylococcus aureus KB 224 (MC, TC, KM, SM^r); test: Minimum inhibitory concentration against resistant strain Staphylococcus aureus KB 224
Text: as §1

| Structure (SMILES) | MIC (Bacillus cereus IFO 3001) | MIC [1] | MIC [2] | MIC [3] | MIC [4] | MIC [5] | MIC [6] | MIC [7] | MIC [8] | MIC [9] | MIC (Escherichia coli NIHJ) | MIC [10] | MIC [11] | MIC [12] | MIC [13] | MIC [14] |
| --- | --- | --- | --- | --- | --- | --- | --- | --- | --- | --- | --- | --- | --- | --- | --- | --- |
| CCC1OC(=O)CC(O)C(C)C(OC2OC(C)C(OC3CC(C)(O)C(O)C(C)O3)C(N(C)C)C2O)C(CC=O)CC(C)C(=O)CC(Sc2ccc(C)cc2)C(C)=CC1COC1OC(C)C(O)C(OC)C1OC (stereo not drawn) [Compound V, 10,11-Dihydro-11-(p-methylphenylthio)tylosin] | 0.4 µg/mL (≈ 0.384 µM) | > 100 µg/mL | 50 µg/mL (≈ 48.1 µM) | 100 µg/mL (≈ 96.1 µM) | < 0.1 µg/mL | 100 µg/mL (≈ 96.1 µM) | 100 µg/mL (≈ 96.1 µM) | 0.4 µg/mL (≈ 0.384 µM) | 25 µg/mL (≈ 24 µM) | 3.12 µg/mL (≈ 3 µM) | 100 µg/mL (≈ 96.1 µM) | 50 µg/mL (≈ 48.1 µM) | – | – | – | – |
| CCSC1CC(=O)C(C)CC(CC=O)C(OC2OC(C)C(O)C(N(C)C)C2O)C(C)C(O)CC(=O)OC(CC)C(COC2OC(C)C(O)C(OC)C2OC)C=C1C (stereo not drawn) [Compound N, 11-(Ethylthio)-10,11-dihydrodemycarosyltylosin] | 0.78 µg/mL (≈ 0.935 µM) | > 100 µg/mL | > 100 µg/mL | 50 µg/mL (≈ 59.9 µM) | 0.2 µg/mL (≈ 0.24 µM) | > 100 µg/mL | > 100 µg/mL | 0.78 µg/mL (≈ 0.935 µM) | > 100 µg/mL | 1.56 µg/mL (≈ 1.87 µM) | > 100 µg/mL | > 100 µg/mL | – | – | – | – |
| CCC1OC(=O)CC(O)C(C)C(OC2OC(C)C(OC3CC(C)(O)C(O)C(C)O3)C(N(C)C)C2O)C(CC=O)CC(C)C(=O)CC(Sc2ccccc2)C(C)=CC1COC1OC(C)C(O)C(OC)C1OC (stereo not drawn) [Compound S, 10,11-Dihydro-11-(phenylthio)tylosin] | 0.4 µg/mL (≈ 0.39 µM) | > 100 µg/mL | 100 µg/mL (≈ 97.4 µM) | 100 µg/mL (≈ 97.4 µM) | < 0.1 µg/mL | 100 µg/mL (≈ 97.4 µM) | 100 µg/mL (≈ 97.4 µM) | 0.4 µg/mL (≈ 0.39 µM) | 50 µg/mL (≈ 48.7 µM) | 1.56 µg/mL (≈ 1.52 µM) | 100 µg/mL (≈ 97.4 µM) | 50 µg/mL (≈ 48.7 µM) | 50 µg/mL (≈ 48.7 µM) | 100 µg/mL (≈ 97.4 µM) | 50 µg/mL (≈ 48.7 µM) | 50 µg/mL (≈ 48.7 µM) |
| CCC1OC(=O)CC(O)C(C)C(OC2OC(C)C(O)C(N(C)C)C2O)C(CC=O)CC(C)C(=O)CC(SCCO)C(C)=CC1COC1OC(C)C(O)C(OC)C1OC (stereo not drawn) [O, 10,11-Dihydro-11-(2-hydroxyethylthio)demycarosyltylosin] | 3.12 µg/mL (≈ 3.67 µM) | > 100 µg/mL | > 100 µg/mL | > 100 µg/mL | 0.4 µg/mL (≈ 0.471 µM) | > 100 µg/mL | > 100 µg/mL | 12.5 µg/mL (≈ 14.7 µM) | > 100 µg/mL | 12.5 µg/mL (≈ 14.7 µM) | > 100 µg/mL | > 100 µg/mL | – | – | – | – |
| CCC1OC(=O)CC(O)C(C)C(OC2OC(C)C(O)C(N(C)C)C2O)C(CC=O)CC(C)C(=O)CC(Sc2ccccc2)C(C)=CC1COC1OC(C)C(O)C(OC)C1OC (stereo not drawn) [Compound Q, 10,11-Dihydro-11-(phenylthio)demycarosyltylosin] | 0.2 µg/mL (≈ 0.227 µM) | > 100 µg/mL | 50 µg/mL (≈ 56.7 µM) | 100 µg/mL (≈ 113 µM) | < 0.1 µg/mL | 100 µg/mL (≈ 113 µM) | 100 µg/mL (≈ 113 µM) | 0.78 µg/mL (≈ 0.884 µM) | > 100 µg/mL | 0.78 µg/mL (≈ 0.884 µM) | 100 µg/mL (≈ 113 µM) | > 100 µg/mL | – | – | – | – |
| CCC1OC(=O)CC(O)C(C)C(OC2OC(C)C(OC3CC(C)(O)C(O)C(C)O3)C(N(C)C)C2O)C(CC(Sc2ccccc2)Sc2ccccc2)CC(C)C(=O)C=CC(C)=CC1COC1OC(C)C(O)C(OC)C1OC (stereo not drawn) [Compound C, Tylosin Diphenyl Thioacetal] | 0.78 µg/mL (≈ 0.697 µM) | – | > 100 µg/mL | > 100 µg/mL | 0.2 µg/mL (≈ 0.179 µM) | > 100 µg/mL | > 100 µg/mL | 0.78 µg/mL (≈ 0.697 µM) | > 50 µg/mL | 12.5 µg/mL (≈ 11.2 µM) | > 100 µg/mL | 50 µg/mL (≈ 44.7 µM) | – | – | – | – |
| CCC1OC(=O)CC(O)C(C)C(OC2OC(C)C(O)C(N(C)C)C2O)C(CC=O)CC(C)C(=O)CC(Sc2ccc(N)cc2)C(C)=CC1COC1OC(C)C(O)C(OC)C1OC (stereo not drawn) [Compound P, 11-(p-Aminophenylthio)-10,11-dihydrodemycarosyltylosin] | 0.78 µg/mL (≈ 0.869 µM) | > 100 µg/mL | > 100 µg/mL | 100 µg/mL (≈ 111 µM) | 0.2 µg/mL (≈ 0.223 µM) | > 100 µg/mL | > 100 µg/mL | 3.12 µg/mL (≈ 3.48 µM) | > 100 µg/mL | 3.12 µg/mL (≈ 3.48 µM) | > 100 µg/mL | > 100 µg/mL | – | – | – | – |
| CCC1OC(=O)CC(O)C(C)C(OC2OC(C)C(OC3CC(C)(O)C(O)C(C)O3)C(N(C)C)C2O)C(CC=O)CC(C)C(=O)CC(Sc2ccc(OC)cc2)C(C)=CC1COC1OC(C)C(O)C(OC)C1OC (stereo not drawn) [Compound W, 10,11-Dihydro-11-(p-methoxyphenylthio)tylosin] | 0.4 µg/mL (≈ 0.379 µM) | > 100 µg/mL | 50 µg/mL (≈ 47.3 µM) | 100 µg/mL (≈ 94.7 µM) | < 0.1 µg/mL | 100 µg/mL (≈ 94.7 µM) | 100 µg/mL (≈ 94.7 µM) | 0.4 µg/mL (≈ 0.379 µM) | 50 µg/mL (≈ 47.3 µM) | 3.12 µg/mL (≈ 2.95 µM) | 100 µg/mL (≈ 94.7 µM) | > 100 µg/mL | – | 100 µg/mL (≈ 94.7 µM) | 50 µg/mL (≈ 47.3 µM) | 50 µg/mL (≈ 47.3 µM) |
| CCSC1CC(=O)C(C)CC(CC=O)C(OC2OC(C)C(OC3CC(C)(O)C(O)C(C)O3)C(N(C)C)C2O)C(C)C(O)CC(=O)OC(CC)C(COC2OC(C)C(O)C(OC)C2OC)C=C1C (stereo not drawn) [Compound R, 11-(Ethylthio)-10,11-dihydrotylosin] | 0.78 µg/mL (≈ 0.797 µM) | > 100 µg/mL | > 100 µg/mL | 100 µg/mL (≈ 102 µM) | < 0.1 µg/mL | > 100 µg/mL | 100 µg/mL (≈ 102 µM) | 0.78 µg/mL (≈ 0.797 µM) | > 100 µg/mL | 1.56 µg/mL (≈ 1.59 µM) | 100 µg/mL (≈ 102 µM) | 100 µg/mL (≈ 102 µM) | – | – | – | – |
| CCC1OC(=O)CC(O)C(C)C(OC2OC(C)C(OC3CC(C)(O)C(O)C(C)O3)C(N(C)C)C2O)C(CC=O)CC(C)C(=O)CC(Sc2ccc(Cl)cc2)C(C)=CC1COC1OC(C)C(O)C(OC)C1OC (stereo not drawn) [Compound T, 11-(p-Chlorophenylthio)-10,11-dihydrotylosin] | 0.4 µg/mL (≈ 0.377 µM) | > 100 µg/mL | 50 µg/mL (≈ 47.1 µM) | 100 µg/mL (≈ 94.3 µM) | < 0.1 µg/mL | 100 µg/mL (≈ 94.3 µM) | 100 µg/mL (≈ 94.3 µM) | 0.4 µg/mL (≈ 0.377 µM) | 25 µg/mL (≈ 23.6 µM) | 3.12 µg/mL (≈ 2.94 µM) | 100 µg/mL (≈ 94.3 µM) | 50 µg/mL (≈ 47.1 µM) | – | 50 µg/mL (≈ 47.1 µM) | 25 µg/mL (≈ 23.6 µM) | 25 µg/mL (≈ 23.6 µM) |
| CCC1OC(=O)CC(O)C(C)C(OC2OC(C)C(OC3CC(C)(O)C(O)C(C)O3)C(N(C)C)C2O)C(CC=O)CC(C)C(=O)CC(Sc2ccc(N)cc2)C(C)=CC1COC1OC(C)C(O)C(OC)C1OC (stereo not drawn) [Compound U, 11-(p-Aminophenylthio)-10,11-dihydrotylosin] | 1.56 µg/mL (≈ 1.5 µM) | > 100 µg/mL | > 100 µg/mL | > 100 µg/mL | 0.78 µg/mL (≈ 0.749 µM) | > 100 µg/mL | > 100 µg/mL | 0.4 µg/mL (≈ 0.384 µM) | > 100 µg/mL | 6.25 µg/mL (≈ 6 µM) | > 100 µg/mL | > 100 µg/mL | – | 50 µg/mL (≈ 48 µM) | 25 µg/mL (≈ 24 µM) | 25 µg/mL (≈ 24 µM) |
